Article PMC2481421, “Gene expression response in target organ and whole blood varies as a function of target organ injury phenotype” (Genome Biology, 2008)
“And” between values parts separate entries of the source, which are not always exact repeats. Identical values can stand only once. “Also recorded” adds a separate entry of the source.

Key:
[1] = In-life observations: body weight, gross findings before and at necropsy; assay type: in vivo, Male Fischer 344/N rats; details: individual animals; for Initial Body Wt.: 48 hours group, baseline weight
Experimental: (§1) Doses were determined with pilot experiments. […] Serum was collected for clinical chemistry.

[2] = system: liver; assay: Liver histopathology (H&E sections of left liver lobe, severity graded) after a single dose; details: for level of hepatocellular necrosis: medium dose, 6 hour
Experimental: The animals were acclimated for 14 days and observed for absence of disease.
Doses were determined with pilot experiments. For each chemical, doses that elicited a sub-toxic ('low'), a moderately toxic ('medium') or a overtly toxic ('high') response 24 hours after treatment were selected. […] For each compound, control animal groups were treated with vehicle alone. All animals were fasted for 12-18 hours prior to exposure. Groups of four to six animals were dosed between 8:30 and 9:30 a.m.; thereafter, feed was provided ad libitum. After 6, 24 or 48 hours of treatment, animals were anesthetized by isoflurane anesthesia. Whole blood was collected via retro-orbital plexus for hematology and gene expression analysis. Serum was collected for clinical chemistry. The animals were euthanized while under anesthesia by cervical dislocation and necropsied within 4 minutes of sacrifice. The left liver lobe was promptly removed and two defined cross sections were placed in 10% neutral buffered formalin for subsequent histopathology.
The cross sections that were fixed by immersion in 10% neutral buffered formalin (see 'In-life studies' section above) were transferred to histology grade alcohol for 18-24 hours after necropsy. Tissues were then processed, embedded in paraffin, sectioned at 5 microns, and stained with hematoxylin and eosin. A pathologist completed the initial microscopic evaluation of each liver sample for a given compound. […] An independent pathology quality assessment review was performed by a second pathologist on the initial histopathological findings.

[3] = system: whole blood; assay: Hematology of whole blood (Technicon H*1, differential and reticulocyte counts); assay type: in vivo, Male Fischer 344/N rats; details: rat, 15 mg/kg, 6 hours, animal 5
Experimental: as §1
Blood was collected in EDTA tubes (BD Microtainer® Tubes). The samples were assayed using the Technicon H*1 hematology analyzer (Bayer Corporation, Tarrytown, NY, USA). The instrument performs white blood cell (WBC) counts by two independent methods. The values must have agreed within 10%. Manual counts and smear estimates were used to confirm values, when necessary. To monitor red blood cell (RBC) parameters, spun microhematocrits were performed for each specimen for comparison with the automated hematocrit (which is calculated from the directly measured RBCs and the mean cell volume). Control products were assayed after every tenth specimen. For WBC differential data, smears were Wright-Giemsa stained using an Ames Hema-Tek II automated slide stainer (Bayer Corporation, Ames Division, Elkhart, IN, USA) and manual WBC differential counts were performed on the first sample in each group. For reticulocyte counts, equal amounts of whole blood and New Methylene Blue stain were allowed to incubate at room temperature for at least 15 minutes. Smears were prepared and read to determine the percent reticulocytes per 1,000 RBCs. The percent value is multiplied by the RBC count to determine the absolute number of reticulocytes per microliter. Additional data file 1 details the values for each of these parameters for every animal.

[4] = system: serum; assay: Serum clinical chemistry (COBAS MIRA); assay type: in vivo, Male Fischer 344/N rats; details: rat, 15 mg/kg, 6 hours, animal 5
Experimental: as §1
At sacrifice, blood was collected in clotting tubes (BD Microtainer® Tubes, BD, Franklin Lakes, NJ, USA) and serum was separated. Clinical chemistry analysis was performed on all rats using a COBAS MIRA (Roche Diagnostics, Montclair, NJ, USA) using commercially available reagents from Equal Diagnostics (Exton, PA, USA) for the following assays: total protein, albumin, cholesterol, creatinine, direct bilirubin, total bilirubin, total bile acid, blood urea nitrogen and triglycerides. In addition, an enzymatic activity for the following proteins was measured: alanine aminotransferase, alkaline phosphatase, aspartate aminotransferase, lactate dehydrogenase, and sorbitol dehydrogenase. Additional data file 1 details the clinical chemistry value for each of these parameters for every animal.

[5] = 15 mg/kg, gavage, corn oil, 6 hours
[6] = 15 mg/kg, gavage, corn oil, 24 hours
[7] = 15 mg/kg, gavage, corn oil, 48 hours
[8] = 150 mg/kg, gavage, corn oil, 6 hours
[9] = 150 mg/kg, gavage, corn oil, 24 hours, listed as 1, 2-Dichlorobenzene
[10] = 150 mg/kg, gavage, corn oil, 48 hours, listed as 1, 2-Dichlorobenzene
[11] = 1500 mg/kg, gavage, corn oil, 6 hours
[12] = 1500 mg/kg, gavage, corn oil, 24 hours, listed as 1, 2-Dichlorobenzene
[13] = 1500 mg/kg, gavage, corn oil, 48 hours, listed as 1, 2-Dichlorobenzene
[14] = categorical score, rat, 15 mg/kg, 6 hours, animal 5
[15] = severity score, rat, 15 mg/kg, 6 hours, animal 5
[16] = 15 mg/kg, gavage in corn oil, 48 hours after single dose
[17] = 50 mg/kg, gavage in corn oil, 48 hours after single dose
[18] = 150 mg/kg, gavage in corn oil, 48 hours after single dose
[19] = Gavage, corn oil, 15 mg/kg, 6 hours
[20] = Gavage, corn oil, 15 mg/kg, 24 hours
[21] = Gavage, corn oil, 50 mg/kg, 6 hours
[22] = Gavage, corn oil, 50 mg/kg, 24 hours
[23] = Gavage, corn oil, 150 mg/kg, 6 hours
[24] = Gavage, corn oil, 150 mg/kg, 24 hours

Clc1ccccc1Cl [1,2-Dichlorobenzene]
Clin/Ob Prior to Necropsy [1, 5]: Normal
Gross Findings [1, 5]: No Gross Findings
Clin/Ob Prior to Necropsy [1, 6]: normal
Gross Findings [1, 6]: No Gross Findings
Final Body Wt. ([1]; 15 mg/kg, gavage, corn oil, 24 hours, listed as 1, 2-Dichlorobenzene): 225.00 g and 229.20 g and 252.70 g and 262.00 g
Clin/Ob Prior to Necropsy [1, 7]: normal
Gross Findings [1, 7]: No Gross Findings
Final Body Wt. ([1]; 15 mg/kg, gavage, corn oil, 48 hours, listed as 1, 2-Dichlorobenzene): 238.50 g and 244.20 g and 246.80 g and 250.10 g
Clin/Ob Prior to Necropsy [1, 8]: Normal
Gross Findings [1, 8]: No Gross Findings
Clin/Ob Prior to Necropsy [1, 9]: normal; also recorded: lethargic
Final Body Wt. [1, 9]: 217.90 g and 205.90 g and 233.30 g and 249.00 g
Gross Findings [1, 9]: No Gross Findings; also recorded: left & median liver lobe mottled; left dark on edges
Clin/Ob Prior to Necropsy ([1]; 150 mg/kg, gavage, corn oil, 48 hours): normal
Final Body Wt. [1, 10]: 235.70 g and 244.20 g and 239.50 g and 241.90 g
Gross Findings [1, 10]: No Gross Findings; also recorded: left liver lobe rough surface
Clin/Ob Prior to Necropsy [1, 11]: Normal
Gross Findings [1, 11]: No Gross Findings
Clin/Ob Prior to Necropsy [1, 12]: lethargic; also recorded: normal
Final Body Wt. [1, 12]: 207.10 g and 207.70 g and 219.70 g and 225.00 g
Gross Findings [1, 12]: left & median liver lobes mottled; left dark on edges; also recorded: No Gross Findings; also recorded: left & median liver lobes mottled; median dark on edges
Clin/Ob Prior to Necropsy ([1]; 1500 mg/kg, gavage, corn oil, 48 hours): lethargic
Final Body Wt. [1, 13]: 208.60 g and 211.10 g
Gross Findings [1, 13]: No Gross Findings; also recorded: left & median liver lobes rough surface
Inflammation [2, 14]: 0
Repair [2, 14]: 0
Response to Hepatocellular Injury [2, 14]: 0
level of hepatocellular necrosis ([2]; animal 2): did not have any observable necrosis
level of hepatocellular necrosis ([2]; animals 1, 3, and 4): minimal
Bile Duct Hyperplasia [2, 15]: 0
Cellular Infiltration, Mixed Cell [2, 15]: 0
Cellular Infiltration, Mononuclear Cell [2, 15]: 0
Cellular Infiltration, Neutrophil [2, 15]: 0
Centrilobular Cellular Infiltration, Mixed Cell [2, 15]: 0
Centrilobular Cellular Infiltration, Mononuclear Cell [2, 15]: 0
Centrilobular Cellular Infiltration, Neutrophil [2, 15]: 0
Centrilobular Hepatocyte Degeneration [2, 15]: 0
Centrilobular Hepatocyte Necrosis [2, 15]: 0
Centrilobular, Hepatocyte, Midzonal Degeneration [2, 15]: 0
Centrilobular, Hepatocyte, Midzonal Necrosis [2, 15]: 0
Congestion [2, 15]: 0
Depletion Glycogen [2, 15]: 0
Focal Hepatocyte Necrosis [2, 15]: 0
Hemorrhage [2, 15]: 0
Hepatocyte Apoptosis [2, 15]: 0
Hepatocyte Fatty Change [2, 15]: 0
Hepatocyte Hypertrophy [2, 15]: 0
Hepatocyte Necrosis [2, 15]: 0
Hepatocyte Regeneration [2, 15]: 0
Midzonal Centrilobular Cellular Infiltration, Mixed Cell [2, 15]: 0
Midzonal Centrilobular Cellular Infiltration, Neutrophil [2, 15]: 0
Midzonal Hepatocyte Necrosis [2, 15]: 0
Mitosis [2, 15]: 0
Portal Cellular Infiltration, Mixed Cell [2, 15]: 0
Portal Cellular Infiltration, Neutrophil [2, 15]: 0
% (Retic) [3]: 1.9%
Absolute Retic [3]: 0.1604
Baso-phils [3]: 0.03
Eosino-phils [3]: 0.06
Hct [3]: 43.4%
Hgb 9g/dL0 [3]: 15 g/dL
LUCs (atyical) [3]: 0.04
Lympho-cytes [3]: 2.84
MCH [3]: 17.8 pg
MCV [3]: 51.4 fL
Mono-cytes [3]: 0.2
Neuts (Segs) [3]: 1.59
Platelets [3]: 601 1000/ul
RBC [3]: 8.44 mil/ul
Spun Hct [3]: 45%
WBC [3]: 4.77 1000/ul
ALP [4]: 269 U/L
ALT [4]: 54 U/L
AST [4]: 128 U/l
Alb [4]: 2.9 g/dL
BUN [4]: 20 mg/dL
CK [4]: 479 U/L
Chol [4]: 45 mg/dL
Crea [4]: 1 mg/dL
D.Bil [4]: 0.2
LDH [4]: 454 U/L
SDH [4]: 5 U/L
T.Bil [4]: 0.9
T.Protein [4]: 6.7 g/dL
Trig [4]: 195 mg/dL

CC(=N)S [Thioacetamide]
Gross Findings ([1]; 15 mg/kg, gavage in corn oil, 48 hours after single dose, at necropsy): No Gross Findings
Clin/Ob Prior to Necropsy [1, 16]: Ungroomed appearance
Final Body Wt. [1, 16]: 264.10 g and 257.60 g and 259.00 g and 263.10 g
Gross Findings ([1]; 50 mg/kg, gavage in corn oil, 48 hours after single dose, at necropsy): Liver left and median lobes rough surface mild; also recorded: Liver left lobe rough surface mild, median lobe pale rough surface mild; also recorded: Liver left and median lobes pale, mildly firm, rough surface
Clin/Ob Prior to Necropsy [1, 17]: Piloerection; also recorded: Ungroomed appearance
Final Body Wt. [1, 17]: 233.00 g and 228.70 g and 248.40 g and 236.30 g
Gross Findings ([1]; 150 mg/kg, gavage in corn oil, 48 hours after single dose, at necropsy): Liver left and median lobes pale, firm, rough surface mild; Kidney red medulla; also recorded: Liver left and median lobes pale, minimally firm, rough surface mild
Clin/Ob Prior to Necropsy [1, 18]: Ungroomed appearance; piloerection; hunched posture; red fur discoloration (cranial dorsum); also recorded: Ungroomed appearance; piloerection; hunched posture; red nasal discharge
Final Body Wt. [1, 18]: 230.90 g and 232.40 g and 228.10 g and 228.50 g
Clin/Ob Prior to Necropsy [1, 19]: Normal
Gross Findings [1, 19]: No Gross Findings
Clin/Ob Prior to Necropsy [1, 20]: Normal
Final Body Wt. [1, 20]: 261.90 g and 245.50 g and 259.10 g and 269.60 g
Gross Findings [1, 20]: No Gross Findings; also recorded: Liver median lobe rough surface minimal
Clin/Ob Prior to Necropsy [1, 21]: Normal
Gross Findings [1, 21]: Liver left lobe mottled; also recorded: No Gross Findings
Clin/Ob Prior to Necropsy [1, 22]: Ungroomed appearance; also recorded: Normal
Final Body Wt. [1, 22]: 231.40 g and 233.80 g and 239.30 g and 227.90 g
Gross Findings [1, 22]: No Gross Findings; also recorded: Liver left lobe rough surface mild, median lobe rough surface minimal; also recorded: Liver left lobe rough surface minimal, median lobe rough surface mild
Clin/Ob Prior to Necropsy [1, 23]: Normal
Gross Findings [1, 23]: Liver left lobe mottled; also recorded: No Gross Findings
Clin/Ob Prior to Necropsy [1, 24]: Normal; also recorded: Red nasal discharge
Final Body Wt. [1, 24]: 222.50 g and 236.40 g and 240.60 g
Gross Findings [1, 24]: Liver left and median lobes rough surface mild; also recorded: Liver left lobe mottled rough surface minimal, median lobe rough surface mild
Initial Body Wt. ([1]; thioacetamide 15 mg/kg, gavage in corn oil): 244.40 g and 241.70 g and 243.00 g and 244.10 g
Initial Body Wt. ([1]; thioacetamide 50 mg/kg, gavage in corn oil): 243.30 g and 241.60 g and 248.50 g and 241.50 g
Initial Body Wt. ([1]; thioacetamide 150 mg/kg, gavage in corn oil): 240.40 g and 246.90 g and 242.10 g and 241.40 g
biliary hyperplasia ([2]; 48 hours): evoked biliary hyperplasia
extent of hepatocellular necrosis, amount of inflammatory cell infiltrates and/or indications of hepatocellular repair (mitosis) across animals ([2]; high dose, 48 hour): variability
Primary site of livery injury ([2]; rat, single administration): Centrilobular
